Columns and labels:
[1] = Log P value; format: physicochemical
[2] = Room temperature solubility in methanol; format: physicochemical; settings: room temperature (20° C. to 30° C.)

Q: For `CCC(=O)O[C@]1(C(=O)SCF)[C@H](C)C[C@H]2[C@@H]3C[C@H](F)C4=CC(=O)C=C[C@]4(C)[C@@]3(F)[C@@H](O)C[C@@]21C` [Active Agent 1, S-(fluoromethyl) 6α,9-difluoro-11β,17-dihydroxy-16α-methyl-3-oxoandrosta-1,4-diene-17β-carbothioate, 17-propionate], which logP [1] is on record?
A: 3.7

Q: What about the solubility in methanol [2] of the same compound?
A: 0.3 wt %
